Source: US6765010B2, “Compositions and methods for enhancing analgesic potency of tramadol and attenuating its adverse side effects” (Pain Therapeutics, Inc., priority 1999, dated 2004)
“Also recorded” adds a separate entry of the source. Where two headings read alike, the source gives them in different places.

Tests used:
mice [1] = details: morphine 20-50 mg/kg s.c. twice daily 4 days alone or + naltrexone 10 μg/kg s.c.; n=30
mice [2] = details: at 30 minutes; n=10
mice [3] = assay: Warm-water (55° C.) tail-flick assay, antinociception; format: in vivo, mouse
mice [4] = assay: Acute physical dependence assay: naloxone-precipitated withdrawal jumping; format: in vivo, mouse; details: for effect on naloxone-precipitated withdrawal jumping: co-treatment 4 hours with 100 mg/kg morphine s.c. plus low dose antagonist
[5] = system: dorsal root ganglion (DRG) neurons; format: cell-based, mouse
[6] = system: excitatory opioid receptors on DRG neurons; format: cell-based, mouse
DRG neurons = format: cell-based, mouse
human volunteers = details: yohimbine 0.1 mg/kg IV; 100 mg tramadol orally; cited from earlier work

## CN1CC[C@]23c4c5ccc(O)c4O[C@H]2[C@@H](O)C=C[C@H]3[C@H]1C5 [morphine]
Mice [1]
  mice showing naloxone-precipitated jumping: About 60%
Mice [2]
  antinociception after acute 1 mg/kg morphine, 1 day after drug withdrawal: 3%±2%
Mice [3]; 100 mg/kg morphine alone or + 10 μg/kg naltrexone, cutoff value
  peak tail-flick latencies: 10 s
Mice [4]; 100 mg/kg morphine s.c. alone or + naltrexone 10 μg/kg, naloxone 10 mg/kg i.p. 3-4 h later, n=30
  mice showing naloxone-precipitated jumping: About 67%
[5]
  APD during application: prolonged
  alteration of the APD of DRG neurons: prolong the APD

## O=C1CC[C@@]2(O)[C@H]3Cc4ccc(O)c5c4[C@@]2(CCN3CC2CC2)[C@H]1O5 [naltrexone]
[6]
  blockade of excitatory APD prolongation by bimodally-acting opioid agonists: remarkably effective in blocking excitatory APD-prolonging effects
  effect on morphine's APD effects: blocks both inhibitory as well as excitatory effects of morphine
  selective antagonism of excitatory APD-prolonging effects at excitatory opioid receptors: act selectively as antagonists; also recorded: selectively blocked
Mice [3]; 10 ng/kg i.p.
  analgesic effects of antagonist alone: did not elicit analgesic effects
Mice [3]; 0.1 μg/kg
  analgesic effects of antagonist alone: did not elicit analgesic effects
Mice [4]
  effect on naloxone-precipitated withdrawal jumping: attenuates naloxone-precipitated withdrawal-jumping
DRG neurons
  excitatory APD prolongation (supersensitivity) after chronic co-treatment: did not evoke the usual excitatory APD prolongation
  tolerance to inhibitory effects of opioids after chronic co-treatment: no evidence of tolerance

## COC(=O)[C@@H]1[C@H]2C[C@H]3c4[nH]c5ccccc5c4CCN3C[C@@H]2CC[C@@H]1O [yohimbine]
Human volunteers
  reduction of tramadol-induced analgesia: ≥ 89%

## C=C1CC[C@@]2(O)[C@H]3Cc4ccc(O)c5c4[C@@]2(CCN3CC2CC2)[C@H]1O5 [nalmefene]
Mice [3]; 1 ng/kg nalmefene
  enhancement of morphine antinociceptive potency compared with naltrexone: as effective as 10 ng/kg naltrexone
Mice [3]; 3 mg/kg morphine + 1-100 ng/kg nalmefene i.p., 10 mice
  effect on morphine's antinociceptive potency: enhances morphine's antinociceptive potency
Mice [4]; 1 μg/kg nalmefene, n=10
  attenuation of morphine dependence liability compared with naltrexone: may even be more effective than naltrexone
Mice [4]
  effect on naloxone-precipitated withdrawal jumping: attenuates naloxone-precipitated withdrawal-jumping
